From ChEMBL document CHEMBL1926626, “Design and synthesis of benzo[c,d]indolone-pyrrolobenzodiazepine conjugates as potential anticancer agents” (Bioorg Med Chem, 2012)
One block for each compound: values may come before it. Active and inactive are the calls of the source. The rule behind the calls is not given here.

Tests used:
Nucleic Acid = experiment: Binding affinity to calf thymus DNA assessed as change in melting temperature at compound:DNA molar ratio of 1:5 after 18 hrs at 37 degC by thermal denaturation assay (RVb = 0.3 to 3.1 degC); assay type: nucleic-acid assay; settings: Bos taurus
A549 [1] = experiment: Anticancer activity against human A549 cells after 48 hrs by MTT assay; settings: A549, 48 h
A-431 = experiment: Anticancer activity against human A431 cells after 48 hrs by MTT assay; assay type: functional, cell-based; settings: A-431, 48 h
COLO 205 = experiment: Anticancer activity against human COLO205 cells after 48 hrs by MTT assay; assay type: functional, cell-based; settings: COLO 205, 48 h
HEK293 = experiment: Cytotoxicity activity against human HEK293 cells after 48 hrs by MTT assay; assay type: cell-based; settings: hek293, 48 h
PC-3 = experiment: Anticancer activity against human PC3 cells after 48 hrs by MTT assay; assay type: functional, cell-based; settings: PC-3, 48 h
A549 [2] = experiment: Induction of apoptosis in human A549 cells assessed as viable cells at 1 uM after 48 hrs by annexin V-FITC and propidium iodide staining method (RVb = 99.93 %); assay type: functional; settings: A549, 48 h, read-out: Activity
A549 [3] = experiment: Induction of apoptosis in human A549 cells assessed as early apoptotic cells at 1 uM after 48 hrs by annexin V-FITC and propidium iodide staining method (RVb = 0.01 %); assay type: functional
A549 [4] = experiment: Induction of cell cycle arrest in human A549 cells assessed as accumulation at G1 phase at 1 uM after 48 hrs by propidium iodide staining-based flow cytometry (reference value: 76.31 %); assay type: functional
A549 [5] = experiment: Induction of apoptosis in human A549 cells assessed as necrotic cells at 1 uM after 48 hrs by annexin V-FITC and propidium iodide staining method (RVb = 0.04 %); assay type: functional
A549 [6] = experiment: Induction of apoptosis in human A549 cells assessed as nuclear condensation at 2 uM after 48 hrs by Hoechst 33258 staining-based fluorescence microscopy relative to control; assay type: functional, cell-based
A549 [7] = experiment: Induction of cell cycle arrest in human A549 cells assessed as accumulation at G2 phase at 1 uM after 48 hrs by propidium iodide staining-based flow cytometry (reference value: 9.23 %); assay type: functional
A549 [8] = experiment: Induction of cell cycle arrest in human A549 cells assessed as accumulation at Sub G1 phase at 1 uM after 48 hrs by propidium iodide staining-based flow cytometry (reference value: 0.67 %); assay type: functional
A549 [9] = experiment: Induction of apoptosis in human A549 cells assessed as late apoptotic cells at 1 uM after 48 hrs by annexin V-FITC and propidium iodide staining method (RVb = 0.02 %); assay type: functional
A549 [10] = experiment: Induction of cell cycle arrest in human A549 cells assessed as accumulation at S phase at 1 uM after 48 hrs by propidium iodide staining-based flow cytometry (reference value: 13.31 %); assay type: functional
A549 [11] = experiment: Induction of apoptosis in human A549 cells assessed as viable cells at 2 uM after 48 hrs by annexin V-FITC and propidium iodide staining method (RVb = 99.93 %); assay type: functional; settings: A549, 48 h, read-out: Activity
A549 [12] = experiment: Induction of cell cycle arrest in human A549 cells assessed as accumulation at G2 phase at 2 uM after 48 hrs by propidium iodide staining-based flow cytometry (reference value: 9.23 %); assay type: functional
A549 [13] = experiment: Induction of apoptosis in human A549 cells assessed as necrotic cells at 2 uM after 48 hrs by annexin V-FITC and propidium iodide staining method (RVb = 0.04 %); assay type: functional
A549 [14] = experiment: Induction of cell cycle arrest in human A549 cells assessed as accumulation at Sub G1 phase at 2 uM after 48 hrs by propidium iodide staining-based flow cytometry (reference value: 0.67 %); assay type: functional
A549 [15] = experiment: Induction of apoptosis in human A549 cells assessed as activation of caspase-3 activity at 1 to 2 uM after 48 hrs by ELISA relative to control; assay type: functional
A549 [16] = experiment: Induction of cell cycle arrest in human A549 cells assessed as accumulation at S phase at 2 uM after 48 hrs by propidium iodide staining-based flow cytometry (reference value: 13.31 %); assay type: functional
A549 [17] = experiment: Induction of cell cycle arrest in human A549 cells assessed as accumulation at subG1 phase after 48 hrs by propidium iodide staining-based flow cytometry; assay type: functional
A549 [18] = experiment: Induction of cell cycle arrest in human A549 cells assessed as accumulation at G1 phase at 2 uM after 48 hrs by propidium iodide staining-based flow cytometry (reference value: 76.31 %); assay type: functional
A549 [19] = experiment: Induction of apoptosis in human A549 cells assessed as oligoneucleosomal DNA fragmentation at 1 to 2 uM after 48 hrs by agarose gel electrophoresis technique; assay type: functional, cell-based
A549 [20] = experiment: Induction of apoptosis in human A549 cells assessed as late apoptotic cells at 2 uM after 48 hrs by annexin V-FITC and propidium iodide staining method (RVb = 0.02 %); assay type: functional
A549 [21] = experiment: Induction of cell cycle arrest in human A549 cells assessed as decrease in accumulation at G0/G1 phase after 48 hrs by propidium iodide staining-based flow cytometry; assay type: functional
A549 [22] = experiment: Induction of apoptosis in human A549 cells assessed as early apoptotic cells at 2 uM after 48 hrs by annexin V-FITC and propidium iodide staining method (RVb = 0.01 %); assay type: functional

ΔTm (Nucleic Acid): 4.9 °C
IC50 (A549 [1]): 10 µM
IC50 (A-431): 9.56 µM
IC50 (COLO 205): 7.66 µM
IC50 (PC-3): 9.8 µM
SMILES: COc1cc2c(cc1OCCCN1c3cccc4cccc(c34)S1(=O)=O)N=C[C@@H]1CCCN1C2=O
Activity (HEK293): Non-toxic

ΔTm (Nucleic Acid): 2 °C
IC50 (A549 [1]): 18.9 µM
IC50 (A-431): 1.25 µM
IC50 (COLO 205): 16.7 µM
IC50 (PC-3): 19.3 µM
SMILES: COc1cc2c(cc1OCCCCCCn1c(=C(C#N)C#N)c3cccc4cccc1c43)N=C[C@@H]1CCCN1C2=O
Activity (HEK293): Non-toxic

SMILES: COc1cc2c(cc1O)N=C[C@@H]1CCCN1C2=O
ΔTm (Nucleic Acid): 0.7 °C
viability at 1 µM (A549 [2]): 41.2%
Activity (A549 [3]): 39.1%
Activity (A549 [4]): 40.78%
Activity (A549 [5]): 1.91%
Activity (A549 [6]): Active
IC50 (A549 [1]): 1.11 µM
Activity (A549 [7]): 8.57%
Activity (A549 [8]): 10.15%
Activity (A549 [9]): 17.73%
Activity (A549 [10]): 38.93%
IC50 (A-431): 1.65 µM
IC50 (COLO 205): 0.86 µM
IC50 (PC-3): 1.19 µM

ΔTm (Nucleic Acid): 2.7 °C
IC50 (A549 [1]): 25.5 µM
IC50 (A-431): 2.5 µM
IC50 (COLO 205): 2.95 µM
IC50 (PC-3): 14.8 µM
SMILES: COc1cc2c(cc1OCCCCn1c(=C(C#N)C#N)c3cccc4cccc1c43)N=C[C@@H]1CCCN1C2=O
Activity (HEK293): Non-toxic

ΔTm (Nucleic Acid): 3.4 °C
IC50 (A549 [1]): 4.86 µM
IC50 (A-431): 4.67 µM
IC50 (COLO 205): 6.1 µM
IC50 (PC-3): 17.9 µM
SMILES: COc1cc2c(cc1OCCCn1c(=C(C#N)C#N)c3cccc4cccc1c43)N=C[C@@H]1CCCN1C2=O
Activity (HEK293): Non-toxic

ΔTm (Nucleic Acid): 3.2 °C
IC50 (A549 [1]): 13.8 µM
IC50 (A-431): 3.04 µM
IC50 (COLO 205): 8.65 µM
IC50 (PC-3): 7.67 µM
SMILES: COc1cc2c(cc1OCCCN1C(=O)c3cccc4cccc1c34)N=C[C@@H]1CCCN1C2=O
Activity (HEK293): Non-toxic

ΔTm (Nucleic Acid): 7.6 °C
IC50 (A549 [1]): 1.05 µM
IC50 (A-431): 1.72 µM
IC50 (COLO 205): 1.21 µM
IC50 (PC-3): 1.52 µM
SMILES: COc1cc2c(cc1OCCCCCCN1c3cccc4cccc(c34)S1(=O)=O)N=C[C@@H]1CCCN1C2=O
viability at 2 µM (A549 [11]): 28.8%
viability at 1 µM (A549 [2]): 40.6%
Activity (A549 [12]): 0.37%
Activity (A549 [13]): 2.77%
Activity (A549 [3]): 32.55%
Activity (A549 [14]): 66.94%
Activity (A549 [4]): 36.77%
fold change (FC) (A549 [15]): 4
Activity (A549 [5]): 1.93%
Activity (A549 [16]): 9.93%
Activity (A549 [6]): Active
Activity (A549 [17]): Dose-dependent effect
Activity (A549 [18]): 20.48%
Activity (A549 [7]): 3.75%
Activity (A549 [19]): Active
Activity (A549 [8]): 42.83%
Activity (A549 [9]): 24.94%
Activity (A549 [20]): 42.4%
Activity (A549 [21]): Dose-dependent effect
Activity (A549 [22]): 26.07%
Activity (A549 [10]): 15.34%
Activity (HEK293): Non-toxic

ΔTm (Nucleic Acid): 2.1 °C
IC50 (A549 [1]): 32.7 µM
IC50 (A-431): 3.31 µM
IC50 (COLO 205): 14.3 µM
IC50 (PC-3): 4.89 µM
SMILES: COc1cc2c(cc1OCCCCCCN1C(=O)c3cccc4cccc1c34)N=C[C@@H]1CCCN1C2=O
Activity (HEK293): Non-toxic

ΔTm (Nucleic Acid): 5.2 °C
IC50 (A549 [1]): 21.9 µM
IC50 (A-431): 3.71 µM
IC50 (COLO 205): 9.76 µM
IC50 (PC-3): 15.5 µM
SMILES: COc1cc2c(cc1OCCCCCN1C(=O)c3cccc4cccc1c34)N=C[C@@H]1CCCN1C2=O
Activity (HEK293): Non-toxic

ΔTm (Nucleic Acid): 3.9 °C
IC50 (A549 [1]): 19.6 µM
IC50 (A-431): 3.34 µM
IC50 (COLO 205): 3.71 µM
IC50 (PC-3): 14.9 µM
SMILES: COc1cc2c(cc1OCCCCN1c3cccc4cccc(c34)S1(=O)=O)N=C[C@@H]1CCCN1C2=O
Activity (HEK293): Non-toxic

ΔTm (Nucleic Acid): 2.8 °C
IC50 (A549 [1]): 5.86 µM
IC50 (A-431): 4.46 µM
IC50 (COLO 205): 25.9 µM
IC50 (PC-3): 36.5 µM
SMILES: COc1cc2c(cc1OCCCCCn1c(=C(C#N)C#N)c3cccc4cccc1c43)N=C[C@@H]1CCCN1C2=O
Activity (HEK293): Non-toxic

ΔTm (Nucleic Acid): 4 °C
IC50 (A549 [1]): 9.8 µM
IC50 (A-431): 1.34 µM
IC50 (COLO 205): 3.31 µM
IC50 (PC-3): 3.23 µM
SMILES: COc1cc2c(cc1OCCCCN1C(=O)c3cccc4cccc1c34)N=C[C@@H]1CCCN1C2=O
Activity (HEK293): Non-toxic

IC50 (A-431): 0.03 µM
IC50 (COLO 205): 1.69 µM
IC50 (PC-3): 2.51 µM
SMILES: COc1cccc2c1C(=O)c1c(O)c3c(c(O)c1C2=O)C[C@@](O)(C(=O)CO)C[C@@H]3O[C@H]1C[C@H](N)[C@H](O)[C@H](C)O1 [DOXORUBICIN]

ΔTm (Nucleic Acid): 5.6 °C
IC50 (A549 [1]): 14.4 µM
IC50 (A-431): 4.67 µM
IC50 (COLO 205): 15.1 µM
IC50 (PC-3): 9.7 µM
SMILES: COc1cc2c(cc1OCCCCCN1c3cccc4cccc(c34)S1(=O)=O)N=C[C@@H]1CCCN1C2=O
Activity (HEK293): Non-toxic
